Assay results reported in patent US10993935B2, “Compositions and methods for treatment of lung infections” (priority 2018, dated 2021).
Structures can show the parent of a compound that is named as a salt.

How the values were obtained:
[1] = test system: P. aeruginosa PAO581 (PAO1mucA25); assay: NIH drug library screen for inhibition of growth, mucoidy and PalgD-lacZ colour; format: cell-based, Pseudomonas aeruginosa; settings: for Growth 2 μM / Mucoidy 2 μM / Color 2 μM: drug at 2 μM; for Growth 2 μM / Growth 10 μM / Growth 50 μM: PAO581 on PIA; for Mucoidy 2 μM / Mucoidy 10 μM / Mucoidy 50 μM: PAO581 with pLP170-PalgD-lacZ on PIA + X-gal; for Color 2 μM / Color 10 μM / Color 50 μM: X-gal colour of PalgD-lacZ reporter, 'Light' wraps to 'Light Blue'; for Growth 10 μM / Mucoidy 10 μM / Color 10 μM: drug at 10 μM; for Growth 50 μM / Mucoidy 50 μM / Color 50 μM: drug at 50 μM
[2] = Adverse effects after nebulization in mice; format: in vivo, C57BL/6 mice; settings: single nebulized dose of 5 ml of 100% DMSO; C57BL/6 mice (n=8)
Procedure: Drug Nebulization. C57BL/6 mice (n=8) were first exposed to 5 mL DMSO for 10 minutes to determine any adverse effects that may occur from using DMSO. Mice (n=16) were then exposed to TOB in 0.225% saline or RFX in DMSO via nebulization until the 5 mL drug mixture was depleted—typically 10-15 minutes. Nebulization was conducted using the pressure-based nebulizer and chamber purchased from Kent Scientific (Torrington, Conn.). TOB was nebulized at concentrations of 100 mg (n=4) or 400 mg (n=4) in 5 mL of 0.225% saline. RFX was nebulized at concentrations of 100 mg (n=4) or 400 mg (n=4) in 5 ml of 100% dimethyl sulfoxide. Mice were sacrificed immediately after nebulization via CO2 chamber. Lungs were then collected and homogenized. TOB concentrations were measured using ELISA. RFX concentrations were measured via HPLC.
The potential adverse effects of using DMSO were first assessed by nebulizing DMSO alone to a group of C57BL/6 mice (n=8). This type of mice was used due to their natural resistance against infection based on our previous studies. […] To determine the dosage of each drug received by the mice, the lungs were homogenized and drug concentrations of TOB and RFX were determined via ELISA and HPLC, respectively. […] The droplet size for both TOB and RFX were determined to be identical with the average droplet size for TOB and RFX being 5.07 μm and 5.02 μm, respectively. […]

SMILES	Growth 2 μM [1]	Mucoidy 2 μM [1]	Color 2 μM [1]	Growth 10 μM [1]	Growth 50 μM [1]	Mucoidy 10 μM [1]	Color 10 μM [1]	Mucoidy 50 μM [1]	Color 50 μM [1]	adverse effects [2]
COc1c(N2C[C@@H]3CCCN[C@@H]3C2)c(F)cc2c(=O)c(C(=O)O)cn(C3CC3)c12 [Moxifloxacin Hydrochloride]	Reduced	Reduced	Light	Inhibited	Inhibited	–	–	–	–	–
CC[C@H]1OC(=O)[C@H](C)[C@@H](O[C@H]2C[C@@](C)(OC)[C@@H](O)[C@H](C)O2)[C@H](C)[C@@H](O[C@@H]2O[C@H](C)C[C@H](N(C)C)[C@H]2O)[C@](C)(OC)C[C@@H](C)C(=O)[C@H](C)[C@@H](O)[C@]1(C)O [Clarithromycin]	Yes	High	Blue	Reduced	Yes	High	Blue	Inhibited	Light	–
CN1CCN(c2c(F)cc3c(=O)c(C(=O)O)cn4c3c2SCC4)CC1 [Rufloxacin Monohydrate]	–	–	–	Yes	Yes	High	Blue	Inhibited	Light	–
CO[C@H]1/C=C/O[C@@]2(C)Oc3c(C)c(O)c4c(c3C2=O)C2=NC3(CCN(CC(C)C)CC3)NC2=C(NC(=O)/C(C)=C\C=C\[C@H](C)[C@H](O)[C@@H](C)[C@@H](O)[C@@H](C)[C@H](OC(C)=O)[C@@H]1C)C4=O [Rifabutin]	Reduced	High	Light	Inhibited	Inhibited	–	–	–	–	–
NC1CCN(c2nc3c(cc2F)c(=O)c(C(=O)O)cn3-c2ccc(F)cc2F)C1 (stereo not drawn) [Tosufloxacin Tosilate]	Inhibited	–	–	Inhibited	Inhibited	–	–	–	–	–
C[S+](C)[O-] [DMSO, dimethyl sulfoxide]	–	–	–	–	–	–	–	–	–	no adverse effects
CCCCCCCCCOc1ccc2[nH]cc(CCN)c2c1 [5-Nonyloxyltryptamine]	–	–	–	Yes	Reduced	High	Blue	High	Blue	–
C[C@H]1COc2c(C3(N)CC3)c(F)cc3c(=O)c(C(=O)O)cn1c23 [Pazufloxacin]	Inhibited	–	–	Inhibited	Inhibited	–	–	–	–	–
CCN1CCN(c2cc3c(cc2F)c(=O)c(C(=O)O)cn3C2CC2)CC1 [Enrofloxacin]	Inhibited	–	–	Inhibited	Inhibited	–	–	–	–	–
CO[C@H]1/C=C/O[C@@]2(C)Oc3c(C)c(O)c4c(O)c(c(/C=N/N5CCN(C6CCCC6)CC5)c(O)c4c3C2=O)NC(=O)/C(C)=C\C=C\[C@H](C)[C@H](O)[C@@H](C)[C@@H](O)[C@@H](C)[C@H](OC(C)=O)[C@@H]1C [Rifapentine]	Yes	High	Blue	Reduced	Inhibited	Reduced	Light	–	–	–
CCCCCCNC(=O)n1cc(F)c(=O)[nH]c1=O [Carmofur]	Yes	High	Light	Reduced	Reduced	Inhibited	Clear	Inhibited	Clear	–
